Measured values taken from patent publication US11945799B2, “4-ethynylpyridine derivatives useful as GCN2 inhibitors” (IP2IPO INNOVATIONS LIMITED, priority 2020, dated 2024).
Where two headings read alike, the source gives them in different places.

How the values were obtained:
[1] = biological target: T1, full-length human GCN2 enzyme (Homo sapiens, UniProt Q9P2K8); assay: GCN2 enzyme inhibition, LanthaScreen TR-FRET Kinase Activity assay (10 μM and 300 μM ATP); assay type: biochemical; conditions: mean of replicate assays
T1 construct: purchased Carna Bioscience
Method: Biological and Pharmacokinetic Testing (a) GCN2 Enzyme Inhibition (10 μM and 300 μM Assays) Assay Protocol Overview:
The inhibitory activity of the Example compounds towards GCN2 enzyme was measured according to the description below, using a LanthaScreen TR-FRET (Time Resolved Fluorescence Resonance Energy Transfer) Kinase Activity assay distributed by ThermoFisher Scientific.
The full-length human GCN2 enzyme (UniProt accession number Q9P2K8) was used for all experiments (Carna Bioscience). The TR-FRET pair was composed of GFP-eIF2α and LanthaScreen Terbium-labeled anti-peIF2α (pSer52) Antibody.
Each example compound was dissolved in DMSO (0.15 mM) and dispensed in a 384-well plate by a D300 dispenser (Tecan) to a final concentration range 3000-0.13 nM using the logarithmic dilution mode in 2 replicates. Full inhibition (3000 nM commercial reference inhibitor) and DMSO vehicle control wells were also included on the same plate. All volumes were normalized to the final DMSO concentration of 2% of the reaction volume. Next, 5 μL of H2O was added to each well of the plate.
The enzyme mixture was prepared to obtain the following concentrations: • GCN2—30 nM • unloaded tRNA—0.3 nM • HEPES (pH=7.0)—100 mM • MgCl2—20 mM; MnCl2—10 mM
The mixture was applied by adding 5 μL to each well of the plate. The enzyme and the tested compound were then incubated at room temperature for 20 min while shaking at 450 rpm.
The substrate mixture was prepared to obtain the following concentrations: • GFP-eIF2α—240 nM • ATP—900 μM or 30 μM • HEPES (pH=7.0)—50 mM • MgCl2—10 mM • MnCl2—5 mM.
The mixture was applied by adding 5 μL to each well of the plate. Thus, the final concentrations of the 15 μL reaction mixture were as follows: • GCN2—10 nM • unloaded tRNA—0.1 nM • GFP-eIF2α—80 nM • ATP—300 μM or 10 μM • HEPES (1 M, pH=7.0)—50 mM • MgCl2—10 mM • MnCl2—5 mM.
The reaction was allowed to proceed at room temperature for 30 min while shaking at 450 rpm.
The antibody mixture was prepared to obtain the following concentrations: • Na2EDTA·2H2O—40 mM, in TR-FRET Dilution Buffer (Life technologies) • Tb—anti-peIF2a antibodies—4 nM.
The mixture was applied by adding 15 μL to each well. The plate was then incubated at room temperature for 60 min while shaking at 450 rpm and then read using Tecan Spark reader using specific TR-FRET filters.
The analysis of the GFP/Tb fluorescence results was conducted with GraphPad Prism to determine IC50 for each of the example compounds using 4-parameter model: log(inhibitor) vs. response-variable slope. IC50 and K, values were calculated in the usual way. The assay was carried out between 1 and 15 times. The results in the table below are the mean results from replicate assays for the compound in question, where applicable.

[2] = Kinetic solubility in PBS buffer pH 7.4; assay type: physicochemical; conditions: aqueous buffer, kinetic from dmso stock; PBS buffer pH 7.4, 90 minutes at room temperature, from 10 mM DMSO stock
Method: The kinetic solubility assay investigates a solubility based on the amount of material which remains in solution after a precipitation process. […] Assay is performed using Multiscreen Vacuum Manifold. A buffer of interest (in standard protocol PBS buffer at pH=7.4 is used) is spiked with stock solution and incubated for 90 minutes at room temperature. After that time solution/suspension is filtrated. The concentration of each compound is determined on the base of prepared calibration curve using UV-VIS spectrophotometry method. The assay is made in triplicate.
Buffer of interest: 0.24 g of KH2PO4, 1.44 g of Na2HPO4, 0.2 g of KCl and 8 g NaCl and dissolve in 1 L distilled H2O; adjust pH to appropriate value (pH 7.4). 190 μl of buffer of interest was dispensed into the wells of a 96 well filter plate, followed by 10 μl of compound (10 mM stock solution in DMSO). The plate was shaken gently at room temperature for 90 minutes at 500 rpm using a BioSan, Plate Shaker-Thermostat, PST-60 HL-4. After 90 minutes, the plate was filtered using a vacuum manifold and vacuum pump. 100 μl of each filtrate and 100 μl acetonitrile was transferred to a 96 well UV-visible light transparent plate and the UV-visible absorption spectrum was measured using a Biotek Synergy 2 multiplate reader from 250-500 nm, interval range 10 nm. The amount of test compound was calculated using a calibration curve prepared by serial dilution of compounds in equivalent amounts of DMSO and acetonitrile.

[3] = read-out: GCN2 IC50 (nM) 300 uM ATP, 300 uM ATP
[4] = read-out: GCN2 Ki (nM) 300 uM ATP, 300 uM ATP
[5] = read-out: GCN2 IC50 (nM) 10 uM ATP, 10 uM ATP
[6] = read-out: GCN2 Ki (nM) 10 uM ATP, 10 uM ATP

T1 sequence (Q9P2K8 whole entry): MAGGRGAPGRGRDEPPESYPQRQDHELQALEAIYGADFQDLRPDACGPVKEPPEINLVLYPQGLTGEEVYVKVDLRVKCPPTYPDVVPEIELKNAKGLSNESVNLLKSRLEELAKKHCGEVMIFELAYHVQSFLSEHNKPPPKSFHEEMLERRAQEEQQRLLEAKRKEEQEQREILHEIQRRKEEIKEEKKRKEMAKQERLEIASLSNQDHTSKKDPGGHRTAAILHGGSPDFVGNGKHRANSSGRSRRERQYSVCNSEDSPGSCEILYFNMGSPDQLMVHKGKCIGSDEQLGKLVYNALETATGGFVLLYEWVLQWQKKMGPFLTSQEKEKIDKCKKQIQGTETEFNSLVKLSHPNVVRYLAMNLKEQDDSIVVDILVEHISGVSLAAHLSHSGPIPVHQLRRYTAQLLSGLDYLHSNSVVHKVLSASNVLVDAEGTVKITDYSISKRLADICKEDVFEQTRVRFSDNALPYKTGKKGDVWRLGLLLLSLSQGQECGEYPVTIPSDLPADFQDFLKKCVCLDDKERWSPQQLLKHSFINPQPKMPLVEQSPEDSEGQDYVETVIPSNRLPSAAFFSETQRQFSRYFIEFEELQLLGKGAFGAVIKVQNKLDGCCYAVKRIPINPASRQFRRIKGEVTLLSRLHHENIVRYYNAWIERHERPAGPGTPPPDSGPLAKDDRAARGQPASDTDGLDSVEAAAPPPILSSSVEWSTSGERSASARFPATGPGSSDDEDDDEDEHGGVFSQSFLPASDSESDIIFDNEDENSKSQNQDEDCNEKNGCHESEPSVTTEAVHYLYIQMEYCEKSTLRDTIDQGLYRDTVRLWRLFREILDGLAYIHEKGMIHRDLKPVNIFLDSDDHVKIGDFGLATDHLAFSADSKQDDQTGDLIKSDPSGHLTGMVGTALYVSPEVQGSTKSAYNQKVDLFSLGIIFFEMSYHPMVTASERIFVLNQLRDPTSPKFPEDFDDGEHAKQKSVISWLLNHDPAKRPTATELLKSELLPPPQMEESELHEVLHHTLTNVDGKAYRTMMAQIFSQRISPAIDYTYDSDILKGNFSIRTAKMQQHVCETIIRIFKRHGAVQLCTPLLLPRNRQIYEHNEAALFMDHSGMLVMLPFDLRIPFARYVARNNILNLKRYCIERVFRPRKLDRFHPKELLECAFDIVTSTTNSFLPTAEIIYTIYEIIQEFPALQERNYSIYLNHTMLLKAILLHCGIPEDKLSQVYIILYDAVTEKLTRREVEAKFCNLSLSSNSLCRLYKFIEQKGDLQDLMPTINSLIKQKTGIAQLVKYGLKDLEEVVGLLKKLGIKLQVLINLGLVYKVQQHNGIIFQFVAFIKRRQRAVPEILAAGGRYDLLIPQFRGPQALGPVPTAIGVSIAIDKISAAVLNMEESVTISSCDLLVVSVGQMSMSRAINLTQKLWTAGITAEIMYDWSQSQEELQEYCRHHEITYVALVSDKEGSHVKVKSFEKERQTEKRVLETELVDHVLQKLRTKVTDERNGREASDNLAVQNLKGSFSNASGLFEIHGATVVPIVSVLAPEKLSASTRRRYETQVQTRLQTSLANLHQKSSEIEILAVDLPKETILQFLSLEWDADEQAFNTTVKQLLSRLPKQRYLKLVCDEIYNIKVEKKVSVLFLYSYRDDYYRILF

Row | SMILES | IC50 [1, 3] [nM] | Ki [1, 4] [nM] | solubility kinetic at 90 min [2] [µg/mL] | IC50 [1, 5] [nM] | Ki [1, 6] [nM]
1 | COc1ccc(Cl)cc1S(=O)(=O)Nc1nccc(C#Cc2cnc(N)nc2)c1F [Example 13, N-{4-[2-(2-aminopyrimidin-5-yl)ethynyl]-3-fluoropyridin-2-yl}-5-chloro-2-methoxybenzene-1-sulfonamide] | 611 | 9.3 | 109 |  | 
2 | O=S(=O)(Nc1nccc(C#Cc2cnc3[nH]ncc3c2)c1F)c1cc(Cl)ccc1Cl [Example 14, 2,5-dichloro-N-[3-fluoro-4-(2-{1H-pyrazolo[3,4-b]pyridin-5-yl}ethynyl)pyridin-2-yl]benzene-1-sulfonamide] | 236 | 3.6 | 24.7 |  | 
3 | Nc1ncc(C#Cc2ccnc(NS(=O)(=O)c3cc(Cl)ccc3Cl)c2F)cn1 [Example 15, N-{4-[2-(2-aminopyrimidin-5-yl)ethynyl]-3-fluoropyridin-2-yl}-2,5-dichlorobenzene-1-sulfonamide] | 465 | 7.1 | 224 |  | 
4 | Nc1ncc(C#Cc2ccnc(NS(=O)(=O)c3cc(Cl)cc(CO)c3Cl)c2F)cn1 [Example 16, N-{4-[2-(2-aminopyrimidin-5-yl)ethynyl]-3-fluoropyridin-2-yl}-2,5-dichloro-3-(hydroxymethyl)benzene-1-sulfonamide] | 111 | 1.7 | 218 |  | 
5 | O=S(=O)(Nc1nccc(C#Cc2cnc3[nH]ncc3c2)c1F)c1cc(Cl)cc(CO)c1Cl [Example 17, 2,5-dichloro-N-[3-fluoro-4-(2-{1H-pyrazolo[3,4-b]pyridin-5-yl}ethynyl)pyridin-2-yl]-3-(hydroxymethyl)benzene-1-sulfonamide] | 59 | 0.9 | 250 |  | 
6 | COc1ncc(Cl)cc1S(=O)(=O)Nc1nccc(C#Cc2cncc3ncn(C)c23)c1F [Example 18, 5-chloro-N-[3-fluoro-4-(2-{1-methyl-1H-imidazo[4,5-c]pyridin-7-yl}ethynyl)pyridin-2-yl]-2-methoxypyridine-3-sulfonamide] | 365 | 5.6 | 24.3 | 11.3 | 3.6
7 | COc1ncc(Cl)cc1S(=O)(=O)Nc1nccc(C#Cc2cncc3ncsc23)c1F [Example 19, 5-chloro-N-[3-fluoro-4-(2-{[1,3]thiazolo[4,5-c]pyridin-7-yl}ethynyl)pyridin-2-yl]-2-methoxypyridine-3-sulfonamide] | 384 | 5.9 | 103 | 12 | 3.8
8 | COc1ncc(Cl)cc1S(=O)(=O)Nc1nccc(C#Cc2cncc3c2cnn3C)c1F [Example 20, 5-chloro-N-[3-fluoro-4-(2-{1-methyl-1H-pyrazolo[3,4-c]pyridin-4-yl}ethynyl)pyridin-2-yl]-2-methoxypyridine-3-sulfonamide] | 324 | 4.9 | 70.6 | 14.5 | 4.6
9 | COc1ncc(Cl)cc1S(=O)(=O)Nc1nccc(C#Cc2cncc3[nH]ncc23)c1F [Example 21, 5-chloro-N-[3-fluoro-4-(2-{1H-pyrazolo[3,4-c]pyridin-4-yl}ethynyl)pyridin-2-yl]-2-methoxypyridine-3-sulfonamide] | 158 | 2.4 | 221 |  | 
10 | COc1ncc(Cl)cc1S(=O)(=O)Nc1nccc(C#Cc2cncc3nn(C)cc23)c1F [Example 22, 5-chloro-N-[3-fluoro-4-(2-{2-methyl-2H-pyrazolo[3,4-c]pyridin-4-yl}ethynyl)pyridin-2-yl]-2-methoxypyridine-3-sulfonamide] | 98.6 | 1.5 | 229 |  | 
11 | COc1ncc(Cl)cc1S(=O)(=O)Nc1nccc(C#Cc2cncc3cnn(C)c23)c1F [Example 24, 5-chloro-N-[3-fluoro-4-(2-{1-methyl-1H-pyrazolo[4,3-c]pyridin-7-yl}ethynyl)pyridin-2-yl]-2-methoxypyridine-3-sulfonamide] | 169 | 2.6 | 80.3 |  | 
12 | CNc1ncc(C#Cc2ccnc(NS(=O)(=O)c3cc(Cl)cnc3OC)c2F)cn1 [Example 25, 5-chloro-N-(3-fluoro-4-{2-[2-(methylamino)pyrimidin-5-yl]ethynyl}pyridin-2-yl)-2-methoxypyridine-3-sulfonamide] | 110 | 1.7 | 208 |  | 
13 | COc1ncc(Cl)cc1S(=O)(=O)Nc1nccc(C#Cc2cnc3cnccn23)c1F [Example 26, 5-chloro-N-[3-fluoro-4-(2-{imidazo[1,2-a]pyrazin-3-yl}ethynyl)pyridin-2-yl]-2-methoxypyridine-3-sulfonamide] | 556 | 8.5 | 241 |  | 
14 | COc1ncc(Cl)cc1S(=O)(=O)Nc1nccc(C#Cc2cnc3[nH]ncc3n2)c1F [Example 27, 5-chloro-N-[3-fluoro-4-(2-{1H-pyrazolo[3,4-b]pyrazin-5-yl}ethynyl)pyridin-2-yl]-2-methoxypyridine-3-sulfonamide] | 225 | 3.4 | 225 |  | 
15 | COc1ncc(Cl)cc1S(=O)(=O)Nc1nccc(C#Cc2cnc3[nH]c(=O)[nH]c3n2)c1F [Example 28, 5-chloro-N-[3-fluoro-4-(2-{2-oxo-1H,2H,3H-imidazo[4,5-b]pyrazin-5-yl}ethynyl)pyridin-2-yl]-2-methoxypyridine-3-sulfonamide] | 174 | 2.7 | 231 |  | 
16 | COc1ncc(Cl)cc1S(=O)(=O)Nc1nccc(C#Cc2cnc3[nH]cnc3c2)c1F [Example 29, 5-chloro-N-[3-fluoro-4-(2-{3H-imidazo[4,5-b]pyridin-6-yl}ethynyl)pyridin-2-yl]-2-methoxypyridine-3-sulfonamide] | 654 | 10 | 231 |  | 
17 | COc1ncc(Cl)cc1S(=O)(=O)Nc1nccc(C#Cc2cnc3ccnn3c2)c1F [Example 30, 5-chloro-N-[3-fluoro-4-(2-{pyrazolo[1,5-a]pyrimidin-6-yl}ethynyl)pyridin-2-yl]-2-methoxypyridine-3-sulfonamide] | 160 | 2.4 | > 245 |  | 
18 | COc1ncc(Cl)cc1S(=O)(=O)Nc1nccc(C#Cc2cnn3cccnc23)c1F [Example 31, 5-chloro-N-[3-fluoro-4-(2-{pyrazolo[1,5-a]pyrimidin-3-yl}ethynyl)pyridin-2-yl]-2-methoxypyridine-3-sulfonamide] | 98.9 | 1.5 | > 243 |  | 
